Data: ChEMBL document CHEMBL1146423, “Adenosine-1 active ligands: cirsimarin, a flavone glycoside from Microtea debilis” (J Nat Prod, 1997)
Calls of active or inactive are those of the source. The rule behind the calls is not given here.

Legend:
Type in all cases: cell membranes
[1] = biological target: T1, Adenosine receptor A1 (Rattus norvegicus) (UniProt P25099); test: Displacement of [3H]DPCPX from adenosine A1 receptor in rat forebrain membrane assessed as fraction of receptor bound radioligand at 100 ug/mL
T1 sequence (whole entry): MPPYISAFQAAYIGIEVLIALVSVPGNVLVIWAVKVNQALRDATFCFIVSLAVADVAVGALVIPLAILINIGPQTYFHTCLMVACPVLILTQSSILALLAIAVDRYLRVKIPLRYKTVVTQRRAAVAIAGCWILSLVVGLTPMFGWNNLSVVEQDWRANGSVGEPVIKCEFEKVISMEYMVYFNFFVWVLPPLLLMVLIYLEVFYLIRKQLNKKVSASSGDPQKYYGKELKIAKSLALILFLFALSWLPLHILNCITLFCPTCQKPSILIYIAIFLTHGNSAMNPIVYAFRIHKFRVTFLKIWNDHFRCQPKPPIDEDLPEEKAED

Adenosine receptor A1 = biological target: T2, Adenosine receptor A1 (Rattus norvegicus, UniProt P25099); test: Displacement of [3H]DPCPX from adenosine A1 receptor in rat forebrain membrane
T2 sequence (P25099 whole entry): T1 sequence (whole entry)

[2] = biological target: T1, Adenosine receptor A1 (Rattus norvegicus); test: Displacement of [3H]DPCPX from adenosine A1 receptor in rat forebrain membrane in presence of GTP

SMILES | Activity [1] [%] | Ki (Adenosine receptor A1) [µM] | Activity [2]
C[C@@H]1O[C@@H](OC[C@H]2O[C@@H](Oc3c(-c4ccc(O)c(O)c4)oc4cc(O)cc(O)c4c3=O)[C@H](O)[C@@H](O)[C@@H]2O)[C@H](O)[C@H](O)[C@H]1O | 103 |  | 
O=c1cc(-c2ccc(O)cc2)oc2c([C@@H]3O[C@H](CO)[C@@H](O)[C@H](O)[C@H]3O)c(O)cc(O)c12 | 103 |  | 
O=c1c(O)c(-c2ccc(O)cc2)oc2cc(O)cc(O)c12 | 18 |  | 
COc1cc2oc(-c3ccc(O[C@@H]4O[C@H](CO)[C@@H](O)[C@H](O)[C@H]4O)cc3)cc(=O)c2c(O)c1OC [CIRSIMARIN] | 2 | 3.2 | Active
COc1cc(-c2cc(=O)c3c(O)cc(O[C@@H]4O[C@H](CO)[C@@H](O)[C@H](O)[C@H]4O[C@@H]4O[C@@H](C)[C@H](O)[C@@H](O)[C@H]4O)cc3o2)ccc1O | 94 |  | 
O=c1c(O[C@@H]2O[C@H](CO)[C@H](O)[C@H](O)[C@H]2O)c(-c2ccc(O)c(O)c2)oc2cc(O)cc(O)c12 | 86 |  | 
C[C@@H]1O[C@@H](Oc2c(-c3ccc(O)c(O)c3)oc3cc(O)cc(O)c3c2=O)[C@H](O)[C@H](O)[C@H]1O (stereo in doubt; 8) | 58 |  | 
O=c1c(O)c(-c2cc(O)c(O)c(O)c2)oc2cc(O)cc(O)c12 | 24 |  | 
C[C@@H]1O[C@@H](Oc2c(-c3ccc(O)c(O)c3)oc3cc(O)cc(O)c3c2=O)[C@H](O)[C@H](O)[C@H]1O (stereo in doubt; 6) | 50 |  | 
C[C@@H]1O[C@@H](OC[C@H]2O[C@@H](Oc3c(-c4ccc(O)cc4)oc4cc(O)cc(O)c4c3=O)[C@H](O)[C@@H](O)[C@@H]2O)[C@H](O)[C@H](O)[C@H]1O | 37 |  | 
COc1cc2oc(-c3ccc(O)cc3)cc(=O)c2c(O)c1OC | 48 |  | 
O=c1cc(-c2ccc(O)cc2)oc2cc(O)cc(O)c12 | 50 |  | 
